Reference: patent publication US10414811B2, “Protease-resistant lipidated GLP-1 analogs” (MEDIMMUNE LIMITED, priority 2015, dated 2019)
Read-outs that look alike come from different tables or passages of the source. Numbered stars: 1 amine (or outer) side, 2 acyl side, 3 side chain; on linkers, the order of the positions; unused ones are H or OH. Square brackets hold non-standard residues; d marks the D form. Side chains are listed from the residue outwards. Peptide text beside a SMILES is read from it. * marks the point of attachment. γGlu = O=C(O)[C@H](CCC(=O)[*:2])N[*:1]; αMeF = C[C@](N)(Cc1ccccc1)C(=O)O; αMeK = C[C@](N)(CCCCN)C(=O)O; Lauroyl = CCCCCCCCCCCC(=O)*; AEEA = NCCOCCOCC(=O)O; Aib = CC(C)(N)C(=O)O

Key:
[1] = molecular target: T1, human glucose-dependent insulinotropic peptide receptor (GIPR) (Homo sapiens, UniProt P48546); assay: cAMP assay, human GIPR cells; assay type: cell-based
T1 construct: expressed in transfected cells
T1 sequence (P48546 22-466): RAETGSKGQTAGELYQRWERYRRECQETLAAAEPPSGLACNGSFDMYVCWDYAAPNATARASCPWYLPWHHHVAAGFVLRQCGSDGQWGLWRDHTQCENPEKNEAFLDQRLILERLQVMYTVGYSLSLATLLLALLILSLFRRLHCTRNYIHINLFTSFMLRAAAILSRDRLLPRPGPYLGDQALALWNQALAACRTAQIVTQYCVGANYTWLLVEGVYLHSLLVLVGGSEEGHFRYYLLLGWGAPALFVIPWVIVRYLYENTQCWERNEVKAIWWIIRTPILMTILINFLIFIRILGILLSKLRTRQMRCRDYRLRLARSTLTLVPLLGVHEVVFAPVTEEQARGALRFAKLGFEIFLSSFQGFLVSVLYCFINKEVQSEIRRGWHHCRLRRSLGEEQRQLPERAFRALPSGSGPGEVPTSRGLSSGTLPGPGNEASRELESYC
Method: (§1) Sample dilutions are made in duplicate.
(§2) A frozen cryo-vial of cells expressing the receptor of interest is thawed rapidly in a water-bath, transferred to pre-warmed assay buffer and spun at 240×g for 5 minutes. Cells are re-suspended in assay buffer at a batch-dependent optimized concentration (e.g. hGCGR cells at 2×10^5 cells/ml, hGLP-1R and hGIPR cells at 1×10^5 cells/ml).
(§3) To this, 5 μL cell suspension is added and the plates incubated at room temperature for 30 minutes.
(§4) cAMP levels are measured using a commercially available cAMP dynamic 2 HTRF kit (Cisbio, Cat #62AM4PEJ), following the two step protocol as per manufacturer's recommendations. In brief; anti-cAMP cryptate (donor fluorophore) and cAMP-d2 (acceptor fluorophore) are made up separately by diluting each 1/20 in conjugate & lysis buffer provided in the kit. 5 μL anti-cAMP cryptate is added to wells of the assay plate, and 5 μL cAMP-d2 is added to wells except non-specific binding (NSB) wells, to which conjugate and lysis buffer are added. […] EC50 values of the synthetic peptides determined in cAMP assays are then determined.
(§5) Data is transformed to % Delta F as described in the manufacturer's guidelines and analyzed by 4-parameter logistic fit to determine EC50 values. […] To compare the balance of activities at the GLP-1R and GCGR between different peptides and across different conditions, these can be correlated, where the EC50's are related to those of comparator peptides.

[2] = molecular target: T2, human glucagon receptor (GCGR) (Homo sapiens, UniProt P47871); assay: cAMP assay, human GCGR cells; assay type: cell-based
T2 construct: expressed in transfected cells
T2 sequence (P47871 26-477): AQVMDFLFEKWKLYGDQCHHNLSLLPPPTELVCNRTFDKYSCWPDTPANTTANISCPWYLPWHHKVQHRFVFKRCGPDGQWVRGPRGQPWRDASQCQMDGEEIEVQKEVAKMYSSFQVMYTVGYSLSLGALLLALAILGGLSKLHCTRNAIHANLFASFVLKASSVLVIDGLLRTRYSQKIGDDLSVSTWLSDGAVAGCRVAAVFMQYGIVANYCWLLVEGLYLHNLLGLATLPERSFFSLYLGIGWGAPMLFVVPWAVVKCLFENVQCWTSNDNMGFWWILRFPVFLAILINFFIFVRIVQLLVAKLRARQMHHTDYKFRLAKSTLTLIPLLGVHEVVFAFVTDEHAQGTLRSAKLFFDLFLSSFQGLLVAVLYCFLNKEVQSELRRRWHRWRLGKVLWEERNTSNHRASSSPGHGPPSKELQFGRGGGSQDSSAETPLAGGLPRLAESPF
Method: as §1, §2, §3, §4, §5

[3] = cAMP assay, first determination (n1), read-out: Primary assay EC50 GIP-R (n1)
[4] = cAMP assay, second determination (n2), read-out: Primary assay EC50 GIP-R (n2)
[5] = cAMP assay, first determination (n1), read-out: Primary assay EC50 Gluc-R (n1)
[6] = cAMP assay, second determination (n2), read-out: Primary assay EC50 Gluc-R (n2)

SMILES | EC50 [1, 3] | EC50 [1, 4] | EC50 [2, 5] | EC50 [2, 6] | EC50 ([1]; tris-lipidated peptides, first replicate, read-out: Primary assay EC50 GIP-R (n1)) | EC50 ([2]; tris-lipidated peptides, first replicate, read-out: Primary assay EC50 Gluc-R (n1))
CC[C@H](C)[C@H](NC(=O)[C@](C)(Cc1ccccc1)NC(=O)[C@H](CCC(=O)O)NC(=O)[C@H](CCCCNC(=O)CC[C@H](NC(=O)CC[C@H](NC(=O)CCCCCCCCCCCCCCCCC(=O)O)C(=O)O)C(=O)O)NC(=O)[C@H](C)NC(=O)[C@H](C)NC(=O)[C@H](CCC(=O)O)NC(=O)CNC(=O)[C@H](CCC(=O)O)NC(=O)[C@H](CC(C)C)NC(=O)[C@](C)(Cc1ccccc1)NC(=O)[C@H](CO)NC(=O)[C@](C)(CO)NC(=O)[C@@H](NC(=O)[C@H](CC(=O)O)NC(=O)[C@H](CO)NC(=O)[C@@H](NC(=O)[C@](C)(Cc1ccccc1)NC(=O)[C@H](CO)NC(=O)CNC(=O)[C@H](CCC(=O)O)NC(=O)C(C)(C)NC(=O)[C@@H](N)Cc1c[nH]cn1)[C@@H](C)O)C(C)C)C(=O)N[C@@H](C)C(=O)N[C@@](C)(Cc1ccccc1)C(=O)N[C@H](C(=O)N[C@H](C(=O)N[C@@](C)(CCCCN)C(=O)NCC(=O)NCC(N)=O)C(C)C)C(C)C [compound 156] | ≥ 27 nM | ≥ 27 nM | ≥ 27 nM | ≥ 27 nM |  | 
CC[C@H](C)[C@H](NC(=O)[C@](C)(Cc1ccccc1)NC(=O)[C@H](CCC(=O)O)NC(=O)[C@H](CCCCNC(=O)COCCOCCNC(=O)COCCOCCNC(=O)CCCCCCCCCCCCCCCCC(=O)O)NC(=O)[C@H](C)NC(=O)[C@H](C)NC(=O)[C@H](CCC(=O)O)NC(=O)CNC(=O)[C@H](CCC(=O)O)NC(=O)[C@H](CC(C)C)NC(=O)[C@](C)(Cc1ccccc1)NC(=O)[C@H](CO)NC(=O)[C@](C)(CO)NC(=O)[C@@H](NC(=O)[C@H](CC(=O)O)NC(=O)[C@H](CO)NC(=O)[C@@H](NC(=O)[C@](C)(Cc1ccccc1)NC(=O)[C@H](CO)NC(=O)CNC(=O)[C@H](CCC(=O)O)NC(=O)C(C)(C)NC(=O)[C@@H](N)Cc1c[nH]cn1)[C@@H](C)O)C(C)C)C(=O)N[C@@H](C)C(=O)N[C@@](C)(Cc1ccccc1)C(=O)N[C@H](C(=O)N[C@H](C(=O)N[C@@](C)(CCCCN)C(=O)NCC(=O)NCC(N)=O)C(C)C)C(C)C [compound 162] | ≥ 26 nM | ≥ 26 nM | ≥ 26 nM | ≥ 26 nM |  | 
CCCCCCCCCCCC(=O)N[C@@H](CCC(=O)NCCOCCOCC(=O)NCCOCCOCC(=O)NCCCC[C@H](NC(=O)CNC(=O)[C@H](CCC(=O)O)NC(=O)[C@H](CC(C)C)NC(=O)[C@H](Cc1ccc(O)cc1)NC(=O)[C@H](CO)NC(=O)[C@H](CO)NC(=O)[C@H](CCCCNC(=O)COCCOCCNC(=O)COCCOCCNC(=O)CC[C@H](NC(=O)CCCCCCCCCCC)C(=O)O)NC(=O)[C@H](CC(=O)O)NC(=O)[C@H](CO)NC(=O)[C@@H](NC(=O)[C@](C)(Cc1ccccc1)NC(=O)[C@H](CO)NC(=O)CNC(=O)[C@H](CCC(=O)O)NC(=O)C(C)(C)NC(=O)[C@@H](N)Cc1c[nH]cn1)[C@@H](C)O)C(=O)N[C@@H](C)C(=O)N[C@@H](C)C(=O)N[C@@](C)(CCCCN)C(=O)N[C@@H](CCC(=O)O)C(=O)N[C@@H](Cc1ccccc1)C(=O)N[C@H](C(=O)N[C@@H](C)C(=O)N[C@@H](Cc1ccccc1)C(=O)N[C@@H](CCCCNC(=O)COCCOCCNC(=O)COCCOCCNC(=O)CC[C@H](NC(=O)CCCCCCCCCCC)C(=O)O)C(=O)N[C@H](C(=O)N[C@@H](CCC(=O)O)C(=O)NCC(=O)NCC(N)=O)C(C)C)[C@@H](C)CC)C(=O)O [compound 472] (H-H[Aib]EGS[αMeF]TSDK([AEEA-AEEA-γGlu-Lauroyl])SSYLEGK([AEEA-AEEA-γGlu-Lauroyl])AA[αMeK]EFIAFK([AEEA-AEEA-γGlu-Lauroyl])VEGG-NH2; N-terminus assumed) |  |  |  |  | 19.9 nM | 19.9 nM
